Measured values reported in paper PMC8698657, “Absorption and Transport Characteristics and Mechanisms of Carnosic Acid” (Biology, 2021).
Where two headings read alike, the source gives them in different places.

Legend:
[1] = Trans-enterocyte transport of CA in Caco-2 cell monolayer; format: in vitro ADME, human; conditions: human
Experimental: (§1) Caco-2 were cultured in EMEM complete medium containing 10% FBS, 1% non-essential amino acids, and 1% penicillin-streptomycin double antibody, and the culture conditions were 37 °C, 5% CO2, in a constant temperature incubator [16]. We first established non-toxic dose ranges of CA in Caco-2 cells using MTT assay. Dimethylsulfoxide (DMSO) was used as the vehicle to deliver CA to the cells. The final concentration of DMSO in all experiments was 0.1% (v/v) in cell culture media. Caco-2 cells were seeded in a 96-well plate at a cell density of 5 × 10^4 cells/mL per well, and cultured under 5% CO2 and 37 °C for 24 h. A quantity of 200 μL of medium was added to each well to obtain a series of CA solutions (concentrations of 25, 50, 75, and 100 μmoL). After 48 h of treatment, Caco-2 cells were subjected to the MTT assay as described previously. For the transport study, Caco-2 cells were seeded on the apical compartment (AP) of 12-well Transwell plates at a density of 2 × 10^5 cells/mL. The complete culture medium was added into basolateral (BL) and AP compartments. The basolateral medium was replaced every other day.
(§2) CA was dissolved in HBSS solution at 50, 75, and 100 μM. The HBSS solution containing CA combined with 0.5% Tween 80, 5 mmol/L EDTA or 5% PEG 400 was prepared. The cumulative migration (Qr), apparent permeability coefficient (Papp), and the Papp value of bi-direction transport of CA were calculated according to formulas.
(§3) The 0.5 mL […] containing different concentrations of CA was added to the AP side of the 12-well Transwell plate, and 1.5 mL HBSS solution was added to the BL side. At 0, 0.5, 1, 1.5, 2, 2.5, and 3 h, 0.2 mL medium was taken from the BL side and stored at −80 °C. The TEER value of each Transwell chamber was measured.
(§4) The cryopreserved Transwell samples were transferred to a 15 mL centrifuge tube, and any remaining liquid was fully washed using 1 mL of 50% methanol solution which was also transferred to the 15 mL centrifuge tube. The mixture was vortexed for 1 min, and 6 mL of ethyl acetate solution was added to the tube and vortexed for another 2 min. The mixture was centrifuged at 6000 rpm/min at 4 °C for 10 min. The supernatant was dried under vacuum, dissolved in 5% phosphoric acid methanol solution, and filtered through a 0.22 μm microporous membrane. The concentration of CA was determined by HPLC as described above.

Caco-2 cell monolayer = experiment: as above; format: in vitro ADME, human; conditions: CA 50–100 μM
Experimental: as §1, §2, §3, §4

[2] = Caco-2, CA 75 μM, Average of 0.5-3.0 h
[3] = Caco-2, CA 100 μM, Average of 0.5-3.0 h

SMILES: CC(C)c1cc2c(c(O)c1O)[C@@]1(C(=O)O)CCCC(C)(C)[C@@H]1CC2 [CA, Carnosic acid]
- efflux ratio at 2.5 h, 75 μM ([1]; Caco-2, CA 75 μM, 2.5 h): 0.49
- Papp A→B at 2.5 h, 75 μM ([1]; Caco-2, CA 75 μM, 2.5 h, CA alone, read-out: Papp AP to BL): 0.83 ± 0.01 ×10⁻⁶ cm/s
- Papp A→B at 2.5 h, 75 μM ([1]; Caco-2, CA 75 μM, 2.5 h, read-out: Papp AP-BL): 0.83 ± 0.01 ×10⁻⁶ cm/s
- Papp B→A at 3 h, 75 μM ([1]; Caco-2, CA 75 μM, 3.0 h): 0.38 ± 0.03 ×10⁻⁶ cm/s
- efflux ratio at 3 h, 75 μM ([1]; Caco-2, CA 75 μM, 3.0 h): 0.61
- Papp A→B at 3 h, 75 μM ([1]; Caco-2, CA 75 μM, 3.0 h, CA alone, read-out: Papp AP to BL): 0.62 ± 0.01 ×10⁻⁶ cm/s
- Papp A→B at 3 h, 75 μM ([1]; Caco-2, CA 75 μM, 3.0 h, read-out: Papp AP-BL): 0.62 ± 0.01 ×10⁻⁶ cm/s
- Papp B→A at 75 μM [1, 2]: 0.66 ± 0.06 ×10⁻⁶ cm/s
- efflux ratio at 75 μM [1, 2]: 0.63
- Papp A→B at 75 μM ([1]; Caco-2, CA 75 μM, Average of 0.5-3.0 h, CA alone, read-out: Papp AP to BL): 1.04 ± 0.02 ×10⁻⁶ cm/s
- Papp A→B at 75 μM ([1]; Caco-2, CA 75 μM, Average of 0.5-3.0 h, read-out: Papp AP-BL): 1.04 ± 0.05 ×10⁻⁶ cm/s
- Papp B→A at 0.5 h, 100 μM ([1]; Caco-2, CA 100 μM, 0.5 h): 0.39 ± 0.03 ×10⁻⁶ cm/s
- efflux ratio at 0.5 h, 100 μM ([1]; Caco-2, CA 100 μM, 0.5 h): 0.35
- Papp A→B at 0.5 h, 100 μM ([1]; Caco-2, CA 100 μM, 0.5 h, CA alone, read-out: Papp AP to BL): 1.1 ± 0.1 ×10⁻⁶ cm/s
- Papp A→B at 0.5 h, 100 μM ([1]; Caco-2, CA 100 μM, 0.5 h, read-out: Papp AP-BL): 1.1 ± 0.1 ×10⁻⁶ cm/s
- Papp B→A at 1 h, 100 μM ([1]; Caco-2, CA 100 μM, 1.0 h): 0.56 ± 0.04 ×10⁻⁶ cm/s
- efflux ratio at 1 h, 100 μM ([1]; Caco-2, CA 100 μM, 1.0 h): 0.42
- Papp A→B at 1 h, 100 μM ([1]; Caco-2, CA 100 μM, 1.0 h, CA alone, read-out: Papp AP to BL): 1.32 ± 0.09 ×10⁻⁶ cm/s
- Papp A→B at 1 h, 100 μM ([1]; Caco-2, CA 100 μM, 1.0 h, read-out: Papp AP-BL): 1.32 ± 0.09 ×10⁻⁶ cm/s
- Papp B→A at 1.5 h, 100 μM ([1]; Caco-2, CA 100 μM, 1.5 h): 2.53 ± 0.03 ×10⁻⁶ cm/s
- efflux ratio at 1.5 h, 100 μM ([1]; Caco-2, CA 100 μM, 1.5 h): 1.07
- Papp A→B at 1.5 h, 100 μM ([1]; Caco-2, CA 100 μM, 1.5 h, CA alone, read-out: Papp AP to BL): 2.36 ± 0.08 ×10⁻⁶ cm/s
- Papp A→B at 1.5 h, 100 μM ([1]; Caco-2, CA 100 μM, 1.5 h, read-out: Papp AP-BL): 2.36 ± 0.08 ×10⁻⁶ cm/s
- Papp B→A at 2 h, 100 μM ([1]; Caco-2, CA 100 μM, 2.0 h): 1.33 ± 0.05 ×10⁻⁶ cm/s
- Papp A→B at 2 h, 100 μM ([1]; Caco-2, CA 100 μM, 2.0 h, CA alone, read-out: Papp AP to BL): 0.87 ± 0.02 ×10⁻⁶ cm/s
- efflux ratio at 2 h, 100 μM ([1]; Caco-2, CA 100 μM, 2.0 h, read-out: Efflux Ratio): 1.52
- Papp A→B at 2 h, 100 μM ([1]; Caco-2, CA 100 μM, 2.0 h, read-out: Papp AP-BL): 0.87 ± 0.02 ×10⁻⁶ cm/s
- Papp B→A at 2.5 h, 100 μM ([1]; Caco-2, CA 100 μM, 2.5 h): 1.45 ± 0.01 ×10⁻⁶ cm/s
- efflux ratio at 2.5 h, 100 μM ([1]; Caco-2, CA 100 μM, 2.5 h): 1.7
- Papp A→B at 2.5 h, 100 μM ([1]; Caco-2, CA 100 μM, 2.5 h, CA alone, read-out: Papp AP to BL): 0.85 ± 0.05 ×10⁻⁶ cm/s
- Papp A→B at 2.5 h, 100 μM ([1]; Caco-2, CA 100 μM, 2.5 h, read-out: Papp AP-BL): 0.85 ± 0.05 ×10⁻⁶ cm/s
- Papp B→A at 3 h, 100 μM ([1]; Caco-2, CA 100 μM, 3.0 h): 1.23 ± 0.03 ×10⁻⁶ cm/s
- efflux ratio at 3 h, 100 μM ([1]; Caco-2, CA 100 μM, 3.0 h): 1.53
- Papp A→B at 3 h, 100 μM ([1]; Caco-2, CA 100 μM, 3.0 h, CA alone, read-out: Papp AP to BL): 0.8 ± 0.09 ×10⁻⁶ cm/s
- Papp A→B at 3 h, 100 μM ([1]; Caco-2, CA 100 μM, 3.0 h, read-out: Papp AP-BL): 0.8 ± 0.09 ×10⁻⁶ cm/s
- Papp B→A at 100 μM [1, 3]: 1.24 ± 0.04 ×10⁻⁶ cm/s
- efflux ratio at 100 μM [1, 3]: 1.03
- Papp A→B at 100 μM ([1]; Caco-2, CA 100 μM, Average of 0.5-3.0 h, CA alone, read-out: Papp AP to BL): 1.21 ± 0.03 ×10⁻⁶ cm/s
- Papp A→B at 100 μM ([1]; Caco-2, CA 100 μM, Average of 0.5-3.0 h, read-out: Papp AP-BL): 1.2 ± 0.07 ×10⁻⁶ cm/s
- efflux ratio at 2 h, 100 μM ([1]; Caco-2, CA 100 μM, after 2-hour incubation, read-out: efflux ratios): 1.52 to 1.7
- efflux ratio ([1]; Caco-2, CA 50 and 75 μM, except 50 μM after 3-hour incubation, read-out: efflux ratios): < 1
- Papp A→B at 1 h, 75 μM ([1]; Caco-2, CA 75 μM, 1.0 h): 1.08 ± 0.04 ×10⁻⁶ cm/s
- Papp B→A at 1 h, 75 μM ([1]; Caco-2, CA 75 μM, 1.0 h): 0.86 ± 0.05 ×10⁻⁶ cm/s
- efflux ratio at 1 h, 75 μM ([1]; Caco-2, CA 75 μM, 1.0 h): 0.79
- Papp ([1]; Caco-2, CA 50–100 μM, 0.5-3 h, read-out: Papp values in both the AP-BL and BL-AP directions): 0.12 to 2.53 ×10⁻⁶ cm/s
- permeability classification (Caco-2 cell monolayer): moderately permeable
